Experiments:
[1] = In vivo pharmacokinetic study in dogs, oral dose of ARI-158; set-up: species or system male beagle dogs; settings: for Plasma Concentration / AUC(0-inf) / AUC(0-t) / Cmax / Tmax / half-life / concentration at 0.083 h / concentration at 0.25 h / concentration at 0.5 h / concentration at 1 h / concentration at 2 h / concentration at 4 h / concentration at 6 h / concentration at 8 h: dogs, 10 mg/kg oral dose of ARI-158; for AUC(0-inf) / AUC(0-t) / Cmax / Tmax / half-life / concentration at 0.083 h / concentration at 0.25 h / concentration at 0.5 h / concentration at 1 h / concentration at 2 h / concentration at 4 h / concentration at 6 h / concentration at 8 h: male, beagle, dog, plasma, po, 10 mg/kg
Method: This example describes pharmacokinetic (PK) studies of ARI-158 and ARI-160 in dogs and rats, respectively. In the present studies, the test compounds were given to groups of male beagle dogs and rats (N=3 in each group) intravenously (IV) at 2 mg/kg or orally (PO) at 10 mg/kg. IV doses were formulated in DMSO, while PO doses were formulated in a 50/50 mixture of PEG400 and Tween 80. Blood samples were collected at pre-dose and over a period of 24 hours post-dose. Plasma concentrations of the indolo-phosphoramidate compounds were determined by HPLC.

EMT-6 cancer cells = test: Anti-tumor activity in EMT-6 syngeneic mouse tumor model; assay type: in vivo; settings: 80 mpk
Method: This example describes in vivo studies that evaluated the anti-cancer efficacy of ARI-158 and ARI-160 in syngeneic mouse tumor models. Mice implanted subcutaneously with EMT-6 cancer cells were treated with ARI-158 and ARI-160, or vehicle controls, as described below.
A monolayer culture of tumor cells was maintained in vitro in DMEM or RPMI1640 medium supplemented with 10% fetal bovine serum at 37° C. in an atmosphere of 5% CO2. Cells in exponential growth phase were harvested and quantitated by cell counter before tumor inoculation.
EMT-6 syngeneic mouse tumor models were generated by inoculating female BALB/C 6 mice with EMT-6 cancer cells at their right lower flank.
Each mouse was inoculated subcutaneously with tumor cells in 0.1 mL of PBS. Treatments were started when the mean tumor size reached approximately 80-120 mm^3 (around 100 mm^3). The administration of the test compounds and the animal number in each study group are shown in the study design. The date of tumor cell inoculation was denoted as day 0.
ARI-158 and ARI-160 were dissolved in DMSO at the final concentration of 26.7 mg/ml and stored at room temperature.
Randomization of animals was started when the mean tumor size reached approximately 90 mm^3 to form the mouse study groups. The randomization was performed based on “Matched distribution” method using the multi-task method (StudyDirector™ software, version 3.1.399.19)/randomized block design. […]
Tumor volumes were measured twice per week in two dimensions using a caliper, and the volume was expressed in mm^3 using the formula: […]
where V is tumor volume, L is tumor length (the longest tumor dimension) and W is tumor width (the longest tumor dimension perpendicular to L). Dosing as well as tumor and body weight measurements was conducted in a Laminar Flow Cabinet. The body weights and tumor volumes were measured by using StudyDirector™ software (version 3.1.399.19).
Tumor growth inhibition percentage (TGI %) is an indicator for antitumor activity of a drug compound, and expressed as: […]
where T and C are the mean tumor volume (or weight) of the treated and control groups, respectively, on a given day. Statistical analysis of the difference in mean tumor volume (MTV) among the groups was conducted using the data collected on the day when the MTV of the vehicle group reached the humane endpoints, so that TGI could be derived for all or most mice enrolled in the study.

Plasma Concentration ([1]; time 0 h, Dog 10): BLQ | Plasma Concentration ([1]; time 0 h, Dog 11): BLQ | Plasma Concentration ([1]; time 0 h, Dog 12): BLQ | Plasma Concentration ([1]; time 8 h, Dog 11): BLQ | Plasma Concentration ([1]; time 24 h, Dog 10): BLQ | Plasma Concentration ([1]; time 24 h, Dog 11): BLQ | Plasma Concentration ([1]; time 24 h, Dog 12): BLQ | AUC(0-inf) ([1]; Dog 10): 1.02 µg·h/mL | AUC(0-t) ([1]; Dog 10): 1.02 µg·h/mL | Cmax ([1]; Dog 10): 0.786 µg/mL | Tmax ([1]; Dog 10): 30 min | half-life ([1]; Dog 10): 82.2 min | AUC(0-inf) ([1]; Dog 11): 0.677 µg·h/mL | AUC(0-t) ([1]; Dog 11): 0.675 µg·h/mL | Cmax ([1]; Dog 11): 0.561 µg/mL | Tmax ([1]; Dog 11): 30 min | half-life ([1]; Dog 11): 39.2 min | AUC(0-inf) ([1]; Dog 12): 0.676 µg·h/mL | AUC(0-t) ([1]; Dog 12): 0.669 µg·h/mL | Cmax ([1]; Dog 12): 0.275 µg/mL | Tmax ([1]; Dog 12): 60 min | half-life ([1]; Dog 12): 61.2 min | AUC(0-inf) ([1]; Mean): 0.791 µg·h/mL | AUC(0-t) ([1]; Mean): 0.787 µg·h/mL | Cmax ([1]; Mean): 0.541 µg/mL | Tmax ([1]; Mean): 40 min | half-life ([1]; Mean): 60.6 min | concentration at 0.083 h ([1]; Dog 10): 0.153 µg/mL | concentration at 0.083 h ([1]; Dog 11): 0.149 µg/mL | concentration at 0.083 h ([1]; Dog 12): 0.0143 µg/mL | concentration at 0.083 h ([1]; Mean): 0.105 µg/mL | concentration at 0.25 h ([1]; Dog 10): 0.438 µg/mL | concentration at 0.25 h ([1]; Dog 11): 0.414 µg/mL | concentration at 0.25 h ([1]; Dog 12): 0.0873 µg/mL | concentration at 0.25 h ([1]; Mean): 0.313 µg/mL | concentration at 0.5 h ([1]; Dog 10): 0.786 µg/mL | concentration at 0.5 h ([1]; Dog 11): 0.561 µg/mL | concentration at 0.5 h ([1]; Dog 12): 0.178 µg/mL | concentration at 0.5 h ([1]; Mean): 0.508 µg/mL | concentration at 1 h ([1]; Dog 10): 0.677 µg/mL | concentration at 1 h ([1]; Dog 11): 0.311 µg/mL | concentration at 1 h ([1]; Dog 12): 0.275 µg/mL | concentration at 1 h ([1]; Mean): 0.421 µg/mL | concentration at 2 h ([1]; Dog 10): 0.128 µg/mL | concentration at 2 h ([1]; Dog 11): 0.102 µg/mL | concentration at 2 h ([1]; Dog 12): 0.158 µg/mL | concentration at 2 h ([1]; Mean): 0.129 µg/mL | concentration at 4 h ([1]; Dog 10): 0.0112 µg/mL | concentration at 4 h ([1]; Dog 11): 0.0144 µg/mL | concentration at 4 h ([1]; Dog 12): 0.0698 µg/mL | concentration at 4 h ([1]; Mean): 0.0318 µg/mL | concentration at 6 h ([1]; Dog 10): 0.00328 µg/mL | concentration at 6 h ([1]; Dog 11): 0.00147 µg/mL | concentration at 6 h ([1]; Dog 12): 0.0141 µg/mL | concentration at 6 h ([1]; Mean): 0.00628 µg/mL | concentration at 8 h ([1]; time 8 h, Dog 10): 0.00147 µg/mL | concentration at 8 h ([1]; time 8 h, Dog 12): 0.00462 µg/mL | concentration at 8 h ([1]; time 8 h, Mean): 0.00305 µg/mL
SMILES: CCC(=O)c1csc(C(=O)c2cn(P(=O)([O-])[O-])c3cc(F)ccc23)n1.[Na+].[Na+] [ARI-158]
absorption ([1]; oral administration in dogs, compared with ARI-143): absorbed much more efficiently than ARI-143 | anti-tumor efficacy (TGI) comparison (EMT-6 cancer cells): better efficacy than ARI-160 | TGI (EMT-6 cancer cells; study day 6): −0.01% | TGI (EMT-6 cancer cells; study day 10): 2.92% | TGI (EMT-6 cancer cells; study day 13): −1.75% | TGI (EMT-6 cancer cells; study day 17): 17.21% | TGI (EMT-6 cancer cells; study day 20): 38.27% | TGI (EMT-6 cancer cells; study day 24): 44.41% | TGI (EMT-6 cancer cells; study day 27): 42.16% | TGI (EMT-6 cancer cells; study day 31): 39.97%

From US20210347794A1, “Phosphate Derivatives of Indole Compounds and Their Use” (ARIAGEN, INC., priority 2018, published 2021)
